Measurements as given in PubChem BioAssay (NCI).
Values joined by “and” are separate entries in the source; they are usually repeats but may differ in a detail not shown here. Identical values can stand only once.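 1) Cells in 96-well plates. 2) Compound, 48 h, 5 concentrations. 3) Linear interpolation between surrounding doses. 4) Unreached endpoint = highest concentration. Abbreviation: GI50, concentration required for 50% inhibition of growth. The concentration for full growth arrest is given as TGI.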

What was measured:
Assay in all cases: growth of human tumour cells (NCI), 48 h
M14 melanoma = system: M14 melanoma
HL-60(TB) leukemia = system: HL-60(TB) leukemia
NCI-H460 lung = system: NCI-H460 lung
CCRF-CEM leukemia = system: CCRF-CEM leukemia
TK-10 renal = system: TK-10 renal
OVCAR-3 ovarian = system: OVCAR-3 ovarian
CAKI-1 renal = system: CAKI-1 renal
MALME-3M melanoma = system: MALME-3M melanoma
UO-31 renal = system: UO-31 renal
LOX IMVI melanoma = system: LOX IMVI melanoma
MCF7 breast = system: MCF7 breast
NCI/ADR-RES ovarian = system: NCI/ADR-RES ovarian
A498 renal = system: A498 renal

SMILES	TGI (M14 melanoma) [µM]	TGI (HL-60(TB) leukemia) [µM]	TGI (NCI-H460 lung) [µM]	TGI (CCRF-CEM leukemia) [µM]	TGI (TK-10 renal) [µM]	TGI (OVCAR-3 ovarian) [µM]	TGI (CAKI-1 renal) [µM]	TGI (MALME-3M melanoma) [µM]	TGI (UO-31 renal) [µM]	TGI (LOX IMVI melanoma) [µM]	TGI (MCF7 breast) [µM]	TGI (NCI/ADR-RES ovarian) [µM]	TGI (A498 renal)	GI50 (HL-60(TB) leukemia) [µM]	GI50 (CCRF-CEM leukemia)	GI50 (CAKI-1 renal) [µM]	GI50 (MALME-3M melanoma) [µM]	GI50 (LOX IMVI melanoma)	GI50 (A498 renal) [µM]
O=C(c1ccccc1)c1c(CNCc2ccccc2)n(C(=O)c2ccccc2)c2ccccc12	> 100	98.7	> 100	> 100	> 100	65.7	> 100	> 100	56.1	–	–	–	–	–	–	–	–	–	–
O=c1[nH]c(=O)n(C2CC(O)C(CO)O2)cc1C#Cc1cc(F)cc(F)c1 (stereo not given)	> 100	–	> 100	> 100	–	> 100	> 100	> 100	> 100	> 100	–	–	–	–	–	–	–	–	–
COc1cc(C=O)c(-c2cc3c(cc2C=O)OCO3)c(OC)c1OC	–	> 290	> 290	> 290	> 290	153	> 290	> 290	–	> 290	–	–	–	–	–	–	–	–	–
CCn1cnc2c(NC(C)=O)ncnc21	> 100	–	> 100	> 100	> 100	> 100	> 100	> 100	> 100	> 100	> 100	> 100	–	–	–	–	–	–	–
CC1CCC23COC(=O)C2C(O)CCC3C1(C)CC(O)c1ccoc1 (stereo not given)	> 100	–	> 100	> 100	> 100	> 100	–	> 100	> 100	> 100	–	–	> 100 µM	–	–	–	–	–	–
CCSc1nc2n(c(=S)n1)CCN2C	31.5	46.1	39.7	–	–	49.3	55.4	36.2	58.9	34.8	–	–	47.5 µM	–	–	–	–	–	–
CC(=O)NC(CCCCNC(=O)N(C)N=O)C(=O)NCc1ccccc1 (stereo not given)	> 100	–	> 100	> 100	> 100	> 100	> 100	> 100	> 100	> 100	–	–	> 100 µM	–	–	–	–	–	–
O=C(Nc1c(Cl)cc([N+](=O)[O-])cc1Cl)/C(=N\Nc1cccc(Cl)c1)c1c(O)c2ccccc2oc1=O	–	> 100	> 100	> 100	> 100	> 100	–	> 100	78.1	–	–	–	91.4 µM	–	–	–	–	–	–
C[C@@H]1OC(=O)/C(=C\N(C)C)[C@H]2CC(=O)N(CCc3cn(S(=O)(=O)C(F)(F)F)c4ccccc34)C[C@H]12	> 100	–	> 100	–	> 100	> 100	> 100	> 100	> 100	> 100	> 100	> 100	> 100 µM	–	–	–	–	–	–
CCN(CC)CCOc1ccc(C(=C2CCCCC2)c2ccc(OCCN(CC)CC)cc2)cc1	2.91	2.56	2.94	3.25	2.89	3.62	3.7	3.13	2.96	2.69	–	–	3.8 µM	–	–	–	–	–	–
C/C(=N/N)c1ccc2[nH]c3c(C)cc([N+](=O)[O-])c(C)c3c2c1	30.4	> 100	72.4	30.1	28.4	30.7	–	16.4	22.4	19.5	–	–	–	–	–	–	–	–	–
S=C(Nc1ccccc1)N1N=C2c3ccccc3CC[C@H]2[C@@H]1c1ccccc1	> 100	4.83	> 100	–	> 100	> 100	–	> 100	> 100	> 100	–	–	> 100 µM	–	–	–	–	–	–
CSc1ccc2c(cc1=O)[C@@H](NC(=O)c1ccc(F)cc1)CCc1cc(O)c(O)c(O)c1-2	> 100	> 100	> 100	> 100	> 100	> 100	> 100	> 100	> 100	> 100	–	–	> 100 µM	–	–	–	–	–	–
Cc1cc(C#N)c(Nc2c(C)cccc2[N+](=O)[O-])s1	> 100	–	> 100	55	–	> 100	> 100	89.3	> 100	–	–	82.3	> 100 µM	–	–	–	–	–	–
NC(CCCCNC(=O)C(Cc1ccccc1)NC(=O)OCc1ccccc1)C(=O)NC(CCCCNC(=O)C(Cc1ccccc1)NC(=O)OCc1ccccc1)C(=O)NC(CCCCNC(=O)C(Cc1ccccc1)NC(=O)OCc1ccccc1)C(=O)NC(CCCCNC(=O)C(Cc1ccccc1)NC(=O)OCc1ccccc1)C(=O)NC(CCCCNC(=O)C(Cc1ccccc1)NC(=O)OCc1ccccc1)C(=O)NC(CCCCNC(=O)C(Cc1ccccc1)NC(=O)OCc1ccccc1)C(=O)O (stereo not given)	> 100	> 100	> 100	> 100	> 100	> 100	> 100	> 100	> 100	> 100	> 100	–	–	–	–	–	–	–	–
CC(C)(C)NC1C2CCC(C)(C1O)C2(C)C (stereo not given)	> 100	–	> 100	–	> 100	> 100	> 100	> 100	> 100	> 100	14.7	> 100	5.19 µM	–	–	–	–	–	–
COc1cc(/C=C(\C#N)c2ccccn2)cc(Br)c1O	> 100	> 100	> 100	> 100	> 100	> 100	> 100	> 100	> 100	–	> 100	75	–	–	–	–	–	–	–
COc1cccc(-n2c(N)c(-c3nc4cc(C(F)(F)F)ccc4s3)c3ccc([N+](=O)[O-])cc3c2=O)c1	> 100	–	> 100	–	> 100	> 100	> 100	> 100	> 100	–	> 100	> 100	> 100 µM	–	–	–	–	–	–
CC1=NN(C(=O)Cc2ccccc2)C(=O)/C1=C\c1ccco1	> 100	> 100	–	> 100	> 100	> 100	> 100	> 100	> 100	> 100	–	–	–	–	–	–	–	–	–
COc1ccc(C#CCC(OC2OC(CO)C(O)C(O)C2O)C(O)c2ccc(OC)c(OC)c2)cc1OC (stereo not given)	> 100	> 100	> 100	> 100	–	> 100	> 100	> 100	> 100	59.1	–	–	> 100 µM	–	–	–	–	–	–
Cc1ccc(C2=C(c3ccccc3)C(O)(c3ccc(C)cc3)C(c3ccccc3)=C2c2ccc(C)cc2)cc1	> 100	> 100	> 100	> 100	> 100	> 100	> 100	> 100	–	> 100	–	–	> 100 µM	–	–	–	–	–	–
CN(C)CCC1(C2=CCCC2)CC/C(=C\c2ccccc2)C1=O (stereo not given)	30.2	29.9	31.3	50.3	29	28.5	26.3	31.7	30.7	31.3	–	–	29.1 µM	–	–	–	–	–	–
COC(=O)C(Cc1nc2ccccc2[nH]c1=O)C(=O)C(=O)Nc1ccc(OC)cc1[N+](=O)[O-] (stereo not given)	> 100	> 100	> 100	> 100	> 100	> 100	> 100	> 100	> 100	> 100	–	–	–	–	–	–	–	–	–
Nc1ccc(N)c2c1C(=O)c1c(N)ccc(N)c1C2=O	> 100	> 100	> 100	> 68.3	> 100	81.9	> 100	> 100	> 100	> 31.6	–	–	> 100 µM	–	–	–	–	–	–
N#CC(c1cc(Cl)ncn1)c1nc2ccccc2s1 (stereo not given)	33.6	–	> 100	–	> 100	22.8	82.1	24.6	> 100	15.8	–	15.2	68.6 µM	–	–	–	–	–	–
O=C(CSc1nnc(-c2ccc(N=Cc3ccc(Cl)cc3)cc2)o1)Nc1cccc(Cl)c1	> 100	> 100	> 100	> 100	> 100	–	–	> 100	> 100	> 100	–	–	–	–	–	–	–	–	–
N#Cc1c2nc3ccccc3nc2n2ccc3ccccc3c12	> 100	> 100	> 100	> 100	> 100	> 100	–	> 100	> 100	–	–	–	–	–	–	–	–	–	–
COc1cc([C@@H]2c3cc4c(c(O)c3C[C@H]3COC(=O)[C@@H]32)OCO4)cc(OC)c1O	–	0.0066	–	> 35.6	–	–	< 0.02	–	> 77.7	> 200	> 200	–	0.0046 µM and < 0.02 µM	0.00241	0.00337 µM and 0.02 µM	0.00611	0.00116	0.00394 µM and 0.0367 µM	0.00144
CN1OC2OC(=O)OC2[C@H]1[C@H]1O[C@H](c2ccccc2)OC1(C)c1cc(OC(=O)c2ccccc2)ccc1OC(=O)c1ccccc1 (stereo not given in full)	> 50	> 50	> 50	> 50	> 50	> 50	> 50	> 50	> 50	> 50	–	–	–	–	–	–	–	–	–
CC(C)(O)[C@H](CCO)O[Si](c1ccccc1)(c1ccccc1)C(C)(C)C	25.8	20.1	26.7	32.2	25.9	23.9	–	31.5	23	27.6	–	–	30.9 µM	–	–	–	–	–	–
